In patent US20030176456A1, “Methods for reducing alcohol cravings in chronic alcoholics” (priority 2001, published 2003):

Legend:
P rats [1] = assay type: in vivo, rat; details: i.p.; chlordiazepoxide 10 mg/kg, βCCt 15 mg/kg; 10 min open field
Experimental: (§1) Ambulatory count in the open field was recorded individually for 10 min in a plexiglas chamber (42 cm×42 cm 30 cm) using a Digiscan activity monitoring system (Acuscan Electronics, Columbus, Ohio, USA) (for details of the monitoring system see June et al., 1998d).
(§2) βCCt (15 mg/kg i.p.) and chlordiazepoxide (10 mg/kg i.p.) were administered 15 and 30 min, respectively, prior to the rats being placed in the open field. EtOH (1.25 g/kg) was given 5 min prior to placing the rats in the open field. When βCCt was given in combination with either chlordiazepoxide or EtOH, it was given 10 min prior to chlordiazepoxide and EtOH. As noted above, βCCt was administered in Tween-20 solution, while all other drugs were mixed in sterile saline. Animals were tested between 9 am-3 pm.
(§3) Ambulatory count in the open field was recorded individually for 10 min in a plexiglas chamber (42 cm×42 cm 30 cm) using a Digiscan activity monitoring system (Acuscan Electronics, Columbus, Ohio, USA) (for details of the monitoring system see June et al., 1998b).
(§4) βCCt (5-60 mg/kg i.p.) and chlordiazepoxide (2.5, 5, 10 mg/kg i.p.) were administered 15 and 30 min, respectively, prior to being placed in the plus maze or open field. EtOH (1.25 g/kg) was given 5 min prior to placing the rats in the open field. When βCCt was given in combination with either chlordiazepoxide or EtOH, it was given 10 min prior to chlordiazepoxide and EtOH. As noted above, βCCt was administered in Tween-20 solution, while all other drugs were mixed in sterile saline. Animals were tested between 9am-3 pm.

HAD-1 rats [2] = assay type: in vivo, rat; details: i.p.; chlordiazepoxide 10 mg/kg, βCCt 15 mg/kg; 10 min open field
Experimental: as §1, §2, §3, §4

P rats [3] = assay type: in vivo, rat
Experimental: (§5) Rats were placed in the middle of the automated plus maze (Acuscan Electronics, Columbus, Ohio, USA) with two walled and open arms under dim illumination (for details see June et al., 1998b).
as §4
(§6) HAD-1 asnd P rats were randomly assigned to each of the […] drug treatment groups (Veh, 5, 15, 30, 60 mg/kg). A between group ANOVA with drug treatment as the independent factor was conducted for HAD-1 (n=8-12 per treatment group) [total N=42] and P (n=7-12 per treatment group) [total N=42] rats on the plus-maze test.

HAD-1 rats [4] = assay type: in vivo, rat
Experimental: as §5, §4, §6

[5] = system: high-alcohol drinking (HAD-1) rats; experiment: Operant self-administration, EtOH (and alternate-day sucrose); assay type: in vivo, rat
Experimental: Operant, Self-administration Apparatus, Training, and Drug Treatment Procedures Behavioral Testing Apparatus. Behavioral testing was conducted in 15 standard operant chambers (Coulbourn Instruments, Allentown, Pa.) equipped with two removable levers and two dipper fluid delivery systems enclosed in sound-attenuated cubicles as previously described (June et al., 1998b; 1998e). All dipper presentations provided a 1.5-sec access to a 0.1-ml dipper, followed by a 3-sec time out period. Above each lever, three stimulus lights (red, green and yellow) were present, and a stimulus delivery/reinforcer was indicated by illumination of the middle (green) stimulus light. Responses and reinforcements were recorded and controlled by a Dell computer using the 4.0 Coulbourn L2T2 operant software package.
HAD-1 Rats. To assess the capacity of βCCt to modulate EtOH responding in the VP, rats were trained to lever press for alcohol only (see below). However, an alternate-day access paradigm was employed to investigate the capacity of systemic injections of βCCt to modify EtOH and sucrose-maintained responding. […] In the VP study rats were initially trained to orally self-administer EtOH and water in daily 60 min sessions on a concurrent FRI schedule in a two-lever choice situation. After a period of stabilization on the FRI schedule, the response requirement was increased to a concurrent FR4 schedule and the water reinforcer was gradually eliminated from the protocol and replaced with EtOH. Thus, the VP HAD-1 rats responded concurrently for EtOH solutions on both levers. The VP HAD rats were then stabilized on this regimen for 3 weeks prior to any microinfusions. Responding was considered stable when responses were within ±20% of the average responses for five consecutive days.
Rats in, the systemic study were trained in a similar manner as the VP animals, except that after a 2 week stabilization period on the concurrently presented EtOH solutions, a series of preliminary studies were conducted to determine the sucrose concentration that produced response rates and profiles similar to that of EtOH during an alternate-day presentation schedule. Following this determination, rats were then stabilized on a regimen of 10% (v/v) EtOH on day 1, and 1% (w/v) sucrose on day 2. This alternate day paradigm continued until a two weeks. After this final stabilization period, the drug treatment phase began. Again, responding was considered stable when responses were within ±20% of the average responses for five consecutive days. The position of the levers and associated dippers for each reinforcer was alternated daily to control for the establishment of lever preference under all concurrent schedules when two different reinforcers were present.
βCCt was administered 15 min before the operant session to allow for optimal absorption and CNS distribution. βCCt was tested at doses of 1-40 mg/kg. The duration of the operant sessions was 60 min, however, subjects were tested at 24 and 48 hours post-drug administration to determine if any residual drug effects remained. A minimum of 72 and maximum of 96 hours was allocated between drug treatments to permit animals to return to baseline levels. This period prevented confounding of drug treatments due to residual effects. […] All systemic drug treatments were given in a randomized design.
The microinfusions were delivered immediately before the operant session with a Harvard infusion pump, during which time animals were able to move about freely in their home cages (for details see June et al., 2001). The injection cannula extended 1 mm beyond the tip of the guide cannulae. βCCt was dissolved in artificial cerebrospinal fluid (aCSF) (composition in mM: NaCl, 120; KCl, 4.8; KH2PO4, 1.2; MgSO4, 1.2; NaHCO3, 25; CaCl2, 2.5; d-glucose, 10). […]

[6] = Rowlett et al., submitted; cited from earlier work
rats = experiment: Reversal of suppression produced by chlordiazepoxide; assay type: in vivo, rat; details: 7.5 & 15 mg/kg; preliminary studies
mice = details: Cox et al., 1998; cited from earlier work

| SMILES | locomotor activity, drug given alone (P rats [1]) | locomotor activity, drug given alone (HAD-1 rats [2]) | effect on anxiolytic activity produced by chlordiazepoxide (5.0 mg/kg) (P rats [3]; 5, 15 mg/kg i.p.) | number of closed arm entries (P rats [3]; i.p. 5-60 mg/kg) | sedation in the plus maze (HAD-1 rats [4]; 60 mg/kg i.p., data not shown) | effect on anxiolytic activity produced by chlordiazepoxide (5.0 mg/kg) (HAD-1 rats [4]; 5, 15 mg/kg i.p.) | number of closed arm entries (HAD-1 rats [4]; i.p.) | dose required to reduce sucrose reinforcer compared to alcohol ([5]; i.p.) | sucrose-maintained responding ([5]; i.p. 10 mg/kg) | EtOH-maintained responding ([5]; i.p. 1-10 mg/kg, alternate-day access) | reduction of EtOH responding 24 hr post-drug ([5]; unilateral VP infusion 2.5-7.5 μg, 24 hr post-drug administration) | EtOH-maintained responding ([5]; unilateral infusion 0.5-7.5 μg into VP) | alcohol-maintained responding ([5]; unilateral infusion into CPu/NACC) | antagonism in zolpidem discrimination [6] | reversal of suppression produced by chlordiazepoxide (2.5-10 mg/kg) (rats) | response in pentylenetetrazole seizure model (mice) |
| --- | --- | --- | --- | --- | --- | --- | --- | --- | --- | --- | --- | --- | --- | --- | --- | --- |
| CC(C)(C)OC(=O)c1cc2c(cn1)[nH]c1ccccc12 [βCCt, β-carboline-3-carboxylate t-butyl ester] | did not produce any intrinsic effects | did not produce any intrinsic effects | neither dose of βCCt (5, 15 mg/kg, i.p.) altered the anxiolytic activity | significant reduction in performance only with the 60 mg/kg dose | marked sedative profile | neither dose of βCCt (5, 15 mg/kg, i.p.) altered the anxiolytic activity | without effect | four-fold higher dose | marked suppression | dose-dependently suppressed | 54-63 % of control levels | dose-dependently reduced | completely ineffective |  |  |  |
| CCCOc1cc2c(cn1)[nH]c1ccccc12.Cl [3-PBC, 3-Propoxy-β-carboline hydrochloride] |  |  |  |  |  |  |  |  |  |  |  |  |  | surmountable antagonism | reversed the suppression produced by chlordiazepoxide | “neutral” antagonist-like response |
